Data as given in patent publication US20250145619A1, “KHK INHIBITOR, PREPARATION METHOD THEREFOR AND USE THEREOF” (YOUNGENE THERAPEUTICS CO., LTD, priority 2022, published 2025).

Target: KHK—C (Homo sapiens (Human), UniProt P50053)
Assay: KHK—C ADP-Glo kinase inhibitory activity assay
Type: biochemical
Settings: 1 nM KHK—C, 200 μM D-Fructose, 100 μM ATP, ADP-Glo luminescence
Text: (KHK—C ADP-Glo Kinase Inhibitory Activity Assay)
Y=Bottom+(Top−Bottom)/(1+10^((LogIC50−X)×HillSlope)) • X: Log value of compound concentration • Y: Inhibition ratio (%)
[formula] • Negative control: DMSO

Chain of KHK—C (P50053 whole entry): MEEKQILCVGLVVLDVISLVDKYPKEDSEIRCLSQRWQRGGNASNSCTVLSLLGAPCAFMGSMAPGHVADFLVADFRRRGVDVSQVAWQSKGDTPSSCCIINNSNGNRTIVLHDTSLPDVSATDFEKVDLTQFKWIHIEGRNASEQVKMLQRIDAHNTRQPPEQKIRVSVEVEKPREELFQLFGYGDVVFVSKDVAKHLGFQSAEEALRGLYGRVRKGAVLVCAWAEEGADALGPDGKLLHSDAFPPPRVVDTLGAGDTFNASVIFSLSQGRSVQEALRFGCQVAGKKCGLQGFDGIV

Row | Structure (SMILES) | IC50 [nM]
1 | C[C@H]1CCN1c1nc(N2CC3(CC(CC(=O)O)C3)C2)c2c(n1)C(F)(F)CC2 [Example 34, (S)-2-(2-(7,7-difluoro-2-(2-methylazetidine-1-yl)-6,7-dihydro-5H-cyclopentadiene[d]pyrimidin-4-yl)-2-azaspiro[3.3]heptan-6-yl)acetic acid] | 40
2 | C[C@H]1CCN1c1nc(N2CC3(CCC(C(=O)O)C3)C2)c2c(n1)C(F)(F)CC2 (stereo partly drawn) [Example 27, 2-(7,7-difluoro-2-((S)-2-methylazetidine-1-yl)-6,7-dihydro-5H-cyclopentadiene[d]pyrimidin-4-yl)-2-azaspiro[3.4]octan-6-carboxylic acid] | 59
